In paper PMC7921938, “The FDA-Approved Antiviral Raltegravir Inhibits Fascin1-Dependent Invasion of Colorectal Tumor Cells In Vitro and In Vivo” (Cancers, 2021):

Target: T1, Fascin1 (Homo sapiens, UniProt Q16658)
T1 construct: gene FSCN1; full-length human Fascin1; in-house protein from pGEX-6P-2A (N-terminal GST, 3C site) in E. coli BL21-gold(DE3), GST cleaved with PreScission
Assay: intrinsic fluorescence titration
Type: binding

Kd: 180 ± 10 µM
Structure (SMILES): Cc1nnc(C(=O)NC(C)(C)c2nc(C(=O)NCc3ccc(F)cc3)c(O)c(=O)n2C)o1 [raltegravir]
